# Test system: Porcine atria myofibrils (atrial myosin ATPase)
# Assay: Myofibril ATPase assay, porcine atria myofibrils
# Assay type: biochemical
# Details: Y75 value (no ‡ mark); porcine atria myofibrils
# Outline: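 Values are Y75 (concentration cutting ATPase activity to 75% of vehicle) or Y125 (raising it to 125%), taken from 4-parameter logistic fits. Rates come from NADH disappearance at 340 nm in a PK/LDH-coupled assay with porcine atria myofibrils.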
row,SMILES,Atrial EC25 [µM]
1,C[C@@H](NC(=O)Cc1cc2cc(F)ccc2[nH]c1=O)c1ccc(C#N)cn1 [compound 1125],18.28
2,"Cc1c(C2(C(=O)N[C@H](C)c3nccc(C#N)n3)CC2)c(=O)[nH]c2ccc(F)cc12 (single isomer, unassigned) [compound 4841]",97.50
3,"C[C@H](NC(=O)C(F)(F)c1cc2c(C#N)c(F)ccc2[nH]c1=O)c1ncc(C#N)cc1F (single isomer, unassigned) [Compound 2530]",0.20

# Same assay, conditions: porcine atria myofibrils; Y75 value (75% activity relative to no compound)
row,SMILES,Atrial EC25 [µM]
1,"C[C@H](NC(=O)[C@H](C)c1cc2cnccc2[nH]c1=O)c1ccc(F)cc1F (single isomer, unassigned) [compound 443]",100.00
2,"Cc1cc(F)cc(F)c1[C@H](C)NC(=O)Cc1c(C)c2c(C)nccc2[nH]c1=O (single isomer, unassigned) [compound 403]",40.23
3,"Cc1nccc2[nH]c(=O)c(CC(=O)N[C@H]3CCc4cc(C#N)cc(F)c43)c(C)c12 (single isomer, unassigned) [compound 198]",0.31
4,"Cc1c(CC(=O)N[C@@H](C)c2ncc(F)cc2F)c(=O)[nH]c2ccc(C#N)nc12 (single isomer, unassigned) [compound 250]",2.60
5,Cc1c(CC(=O)N[C@@H](C)c2ccc(F)cc2F)c(=O)[nH]c2ccc(OC(F)(F)F)nc12 [compound 359],0.11
6,Cc1c(CC(=O)N[C@@H](C)c2cnc(C#N)nc2)c(=O)[nH]c2ccc(C(F)(F)F)nc12 [compound 458],0.79
7,Cc1c(CC(=O)N[C@@H](CO)c2ncc(F)cc2F)c(=O)[nH]c2ccnc(C(F)(F)F)c12 [compound 264],0.29
8,"Cc1c(CC(=O)N[C@H](CO)c2ccc(C#N)cc2F)c(=O)[nH]c2ccnc(C#N)c12 (single isomer, unassigned) [compound 241]",0.69
9,Cc1c(CC(=O)N[C@@H](C)c2ccc(F)cc2F)c(=O)[nH]c2ccnc(F)c12 [compound 391],0.05
10,C[C@H](NC(=O)Cc1c(C(F)(F)F)c2c(Cl)nccc2[nH]c1=O)c1ccc(F)cc1F [compound 428],1.35
11,"Cc1c(CC(=O)N[C@@H](C)c2ncc(C#N)cc2F)c(=O)[nH]c2ccnc(C#N)c12 (single isomer, unassigned) [compound 285]",0.28
12,Cc1c(CC(=O)N[C@@H](CO)c2ccc(F)cc2F)c(=O)[nH]c2ccnc(C#N)c12 [compound 230],0.11
13,C[C@H](NC(=O)Cc1cc2nc(O)ccc2[nH]c1=O)c1ccc(F)cc1F [compound 300],100.00
14,"Cc1c(CC(=O)N[C@@H](CO)c2ccc(C#N)cc2F)c(=O)[nH]c2ccnc(C(F)(F)F)c12 (single isomer, unassigned) [compound 225]",0.08
15,"Cc1nccc2[nH]c(=O)c(C(F)(F)C(=O)N[C@@H](C)c3cnc(C#N)cn3)c(C)c12 (single isomer, unassigned) [compound 3521]",14.61
16,"Cc1nc(C#N)cnc1[C@H](C)NC(=O)Cc1c(C)c2nc(C(F)(F)F)ccc2[nH]c1=O (single isomer, unassigned) [compound 139]",0.08

# Biological target: T1, Porcine ventricle myofibrils (ventricular myosin ATPase) (Sus scrofa, UniProt P79293)
# T1 construct: Myofibrils from porcine cardiac muscle was isolated from the left ventricle of Yucatan minipigs; tissue Exemplar Genetics; host or cells: left ventricle of Yucatan minipigs, myofibrils prepared in house
# Assay: Myofibril ATPase assay, porcine ventricle myofibrils
# Assay type: biochemical, porcine (Yucatan minipigs)
# Details: Y75 value (no ‡ mark); porcine ventricle myofibrils
# Outline: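 Read-out: A340 kinetic, NADH consumption coupled to ADP via PK-LDH, 75 min. Yucatan minipig LV myofibrils, pCa buffer (PIPES/CaCl2/EGTA, pH 7.0). Linear-regression slope (mAU/min), vehicle = 100%, 4PL fit; Y75 or Y125 reported.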
# T1 sequence (P79293 whole entry): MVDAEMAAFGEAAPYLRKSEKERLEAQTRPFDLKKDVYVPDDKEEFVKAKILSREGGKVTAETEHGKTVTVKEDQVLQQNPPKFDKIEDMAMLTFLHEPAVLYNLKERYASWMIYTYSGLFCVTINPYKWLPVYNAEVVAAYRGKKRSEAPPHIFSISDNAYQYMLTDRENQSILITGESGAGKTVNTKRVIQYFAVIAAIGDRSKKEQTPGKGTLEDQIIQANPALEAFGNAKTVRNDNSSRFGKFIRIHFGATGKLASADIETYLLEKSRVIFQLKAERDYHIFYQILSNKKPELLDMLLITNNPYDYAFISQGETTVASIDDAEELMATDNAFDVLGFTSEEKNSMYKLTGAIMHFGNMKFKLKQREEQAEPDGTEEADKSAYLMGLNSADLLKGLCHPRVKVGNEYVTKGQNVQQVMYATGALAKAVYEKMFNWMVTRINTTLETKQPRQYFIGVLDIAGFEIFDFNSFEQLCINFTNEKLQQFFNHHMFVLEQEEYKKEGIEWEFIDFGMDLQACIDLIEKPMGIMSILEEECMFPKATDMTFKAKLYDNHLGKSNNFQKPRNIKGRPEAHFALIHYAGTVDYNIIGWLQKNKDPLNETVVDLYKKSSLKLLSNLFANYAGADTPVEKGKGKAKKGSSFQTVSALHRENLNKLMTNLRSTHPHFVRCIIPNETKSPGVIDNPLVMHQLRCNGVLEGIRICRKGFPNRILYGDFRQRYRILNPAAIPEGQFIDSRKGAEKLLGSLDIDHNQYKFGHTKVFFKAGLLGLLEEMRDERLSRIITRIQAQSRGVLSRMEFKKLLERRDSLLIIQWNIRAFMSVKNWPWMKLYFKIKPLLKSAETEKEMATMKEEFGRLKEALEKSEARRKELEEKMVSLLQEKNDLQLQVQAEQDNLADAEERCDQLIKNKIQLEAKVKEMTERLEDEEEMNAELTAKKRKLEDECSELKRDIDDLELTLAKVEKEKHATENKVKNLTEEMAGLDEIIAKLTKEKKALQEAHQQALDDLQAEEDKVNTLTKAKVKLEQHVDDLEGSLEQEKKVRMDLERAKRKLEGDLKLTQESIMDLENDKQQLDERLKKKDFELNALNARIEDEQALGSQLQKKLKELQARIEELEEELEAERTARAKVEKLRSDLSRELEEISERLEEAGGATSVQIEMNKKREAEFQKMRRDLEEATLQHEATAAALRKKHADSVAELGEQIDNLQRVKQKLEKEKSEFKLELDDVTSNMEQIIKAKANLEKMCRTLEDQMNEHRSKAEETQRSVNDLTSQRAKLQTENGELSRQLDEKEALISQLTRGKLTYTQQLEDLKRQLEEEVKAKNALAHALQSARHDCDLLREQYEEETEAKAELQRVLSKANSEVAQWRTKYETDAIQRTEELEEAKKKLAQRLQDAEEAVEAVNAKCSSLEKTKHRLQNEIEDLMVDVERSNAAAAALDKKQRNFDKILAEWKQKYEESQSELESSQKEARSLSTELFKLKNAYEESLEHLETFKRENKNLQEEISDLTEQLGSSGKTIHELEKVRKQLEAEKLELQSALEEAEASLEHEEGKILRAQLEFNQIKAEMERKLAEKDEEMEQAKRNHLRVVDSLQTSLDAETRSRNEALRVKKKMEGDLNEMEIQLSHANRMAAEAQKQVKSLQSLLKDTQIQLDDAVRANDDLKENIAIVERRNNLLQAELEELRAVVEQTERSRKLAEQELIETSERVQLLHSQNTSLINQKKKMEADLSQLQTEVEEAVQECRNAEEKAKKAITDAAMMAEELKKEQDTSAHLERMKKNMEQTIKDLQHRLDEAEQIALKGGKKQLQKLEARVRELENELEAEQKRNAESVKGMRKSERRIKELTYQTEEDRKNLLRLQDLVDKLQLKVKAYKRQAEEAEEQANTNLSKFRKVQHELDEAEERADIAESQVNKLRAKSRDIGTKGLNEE
row,SMILES,Ventricular EC25 [µM]
1,C[C@@H](NC(=O)Cc1cc2cc(F)ccc2[nH]c1=O)c1ccc(C#N)cn1 [compound 1125],100.00
2,"Cc1c(C2(C(=O)N[C@H](C)c3nccc(C#N)n3)CC2)c(=O)[nH]c2ccc(F)cc12 (single isomer, unassigned) [compound 4841]",100.00
3,"C[C@H](NC(=O)C(F)(F)c1cc2c(C#N)c(F)ccc2[nH]c1=O)c1ncc(C#N)cc1F (single isomer, unassigned) [Compound 2530]",0.21

# Same assay, conditions: porcine ventricle myofibrils; Y75 value
row,SMILES,Ventricular EC25 [µM]
1,"C[C@H](NC(=O)[C@H](C)c1cc2cnccc2[nH]c1=O)c1ccc(F)cc1F (single isomer, unassigned) [compound 443]",100.00
2,"Cc1cc(F)cc(F)c1[C@H](C)NC(=O)Cc1c(C)c2c(C)nccc2[nH]c1=O (single isomer, unassigned) [compound 403]",2.08
3,"Cc1nccc2[nH]c(=O)c(CC(=O)N[C@H]3CCc4cc(C#N)cc(F)c43)c(C)c12 (single isomer, unassigned) [compound 198]",0.18
4,"Cc1c(CC(=O)N[C@@H](C)c2ncc(F)cc2F)c(=O)[nH]c2ccc(C#N)nc12 (single isomer, unassigned) [compound 250]",80.59
5,Cc1c(CC(=O)N[C@@H](C)c2ccc(F)cc2F)c(=O)[nH]c2ccc(OC(F)(F)F)nc12 [compound 359],100.00
6,Cc1c(CC(=O)N[C@@H](C)c2cnc(C#N)nc2)c(=O)[nH]c2ccc(C(F)(F)F)nc12 [compound 458],100.00
7,Cc1c(CC(=O)N[C@@H](CO)c2ncc(F)cc2F)c(=O)[nH]c2ccnc(C(F)(F)F)c12 [compound 264],2.73
8,"Cc1c(CC(=O)N[C@H](CO)c2ccc(C#N)cc2F)c(=O)[nH]c2ccnc(C#N)c12 (single isomer, unassigned) [compound 241]",4.21
9,Cc1c(CC(=O)N[C@@H](C)c2ccc(F)cc2F)c(=O)[nH]c2ccnc(F)c12 [compound 391],0.29
10,C[C@H](NC(=O)Cc1c(C(F)(F)F)c2c(Cl)nccc2[nH]c1=O)c1ccc(F)cc1F [compound 428],1.94
11,"Cc1c(CC(=O)N[C@@H](C)c2ncc(C#N)cc2F)c(=O)[nH]c2ccnc(C#N)c12 (single isomer, unassigned) [compound 285]",0.16
12,Cc1c(CC(=O)N[C@@H](CO)c2ccc(F)cc2F)c(=O)[nH]c2ccnc(C#N)c12 [compound 230],0.96
13,C[C@H](NC(=O)Cc1cc2nc(O)ccc2[nH]c1=O)c1ccc(F)cc1F [compound 300],100.00
14,"Cc1c(CC(=O)N[C@@H](CO)c2ccc(C#N)cc2F)c(=O)[nH]c2ccnc(C(F)(F)F)c12 (single isomer, unassigned) [compound 225]",2.46
15,"Cc1nccc2[nH]c(=O)c(C(F)(F)C(=O)N[C@@H](C)c3cnc(C#N)cn3)c(C)c12 (single isomer, unassigned) [compound 3521]",34.58
16,"Cc1nc(C#N)cnc1[C@H](C)NC(=O)Cc1c(C)c2nc(C(F)(F)F)ccc2[nH]c1=O (single isomer, unassigned) [compound 139]",0.18

# Test system: Rabbit Psoas myofibrils (skeletal myosin ATPase)
# Assay: Myofibril ATPase assay, rabbit psoas (skeletal) myofibrils
# Assay type: biochemical
# Details: Y75 value (no ‡ mark); rabbit psoas myofibrils
# Outline: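 Myofibrils homogenized in Triton X-100 buffer were assayed in pH 7.0 PIPES with defined Ca2+/EGTA. Myosin-driven ADP formation was coupled to NADH oxidation, with depletion monitored at 340 nm. Each value is the concentration that lowers activity to 75% of vehicle or, for activators, raises it to 125%.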
row,SMILES,Skeletal EC25 [µM]
1,C[C@@H](NC(=O)Cc1cc2cc(F)ccc2[nH]c1=O)c1ccc(C#N)cn1 [compound 1125],100.00
2,"Cc1c(C2(C(=O)N[C@H](C)c3nccc(C#N)n3)CC2)c(=O)[nH]c2ccc(F)cc12 (single isomer, unassigned) [compound 4841]",100.00
3,"C[C@H](NC(=O)C(F)(F)c1cc2c(C#N)c(F)ccc2[nH]c1=O)c1ncc(C#N)cc1F (single isomer, unassigned) [Compound 2530]",0.08

# Same assay, conditions: rabbit psoas myofibrils; Y75 value
row,SMILES,Skeletal EC25 [µM]
1,"C[C@H](NC(=O)[C@H](C)c1cc2cnccc2[nH]c1=O)c1ccc(F)cc1F (single isomer, unassigned) [compound 443]",1.34
2,"Cc1cc(F)cc(F)c1[C@H](C)NC(=O)Cc1c(C)c2c(C)nccc2[nH]c1=O (single isomer, unassigned) [compound 403]",0.19
3,"Cc1nccc2[nH]c(=O)c(CC(=O)N[C@H]3CCc4cc(C#N)cc(F)c43)c(C)c12 (single isomer, unassigned) [compound 198]",0.02
4,"Cc1c(CC(=O)N[C@@H](C)c2ncc(F)cc2F)c(=O)[nH]c2ccc(C#N)nc12 (single isomer, unassigned) [compound 250]",16.64
5,Cc1c(CC(=O)N[C@@H](C)c2ccc(F)cc2F)c(=O)[nH]c2ccc(OC(F)(F)F)nc12 [compound 359],0.04
6,Cc1c(CC(=O)N[C@@H](C)c2cnc(C#N)nc2)c(=O)[nH]c2ccc(C(F)(F)F)nc12 [compound 458],10.51
7,Cc1c(CC(=O)N[C@@H](CO)c2ncc(F)cc2F)c(=O)[nH]c2ccnc(C(F)(F)F)c12 [compound 264],0.57
8,"Cc1c(CC(=O)N[C@H](CO)c2ccc(C#N)cc2F)c(=O)[nH]c2ccnc(C#N)c12 (single isomer, unassigned) [compound 241]",0.17
9,Cc1c(CC(=O)N[C@@H](C)c2ccc(F)cc2F)c(=O)[nH]c2ccnc(F)c12 [compound 391],0.01
10,C[C@H](NC(=O)Cc1c(C(F)(F)F)c2c(Cl)nccc2[nH]c1=O)c1ccc(F)cc1F [compound 428],0.09
11,"Cc1c(CC(=O)N[C@@H](C)c2ncc(C#N)cc2F)c(=O)[nH]c2ccnc(C#N)c12 (single isomer, unassigned) [compound 285]",0.02
12,Cc1c(CC(=O)N[C@@H](CO)c2ccc(F)cc2F)c(=O)[nH]c2ccnc(C#N)c12 [compound 230],0.02
13,C[C@H](NC(=O)Cc1cc2nc(O)ccc2[nH]c1=O)c1ccc(F)cc1F [compound 300],100.00
14,"Cc1c(CC(=O)N[C@@H](CO)c2ccc(C#N)cc2F)c(=O)[nH]c2ccnc(C(F)(F)F)c12 (single isomer, unassigned) [compound 225]",0.03
15,"Cc1nccc2[nH]c(=O)c(C(F)(F)C(=O)N[C@@H](C)c3cnc(C#N)cn3)c(C)c12 (single isomer, unassigned) [compound 3521]",2.68
16,"Cc1nc(C#N)cnc1[C@H](C)NC(=O)Cc1c(C)c2nc(C(F)(F)F)ccc2[nH]c1=O (single isomer, unassigned) [compound 139]",0.02

# From patent US12448369B2 (Edgewise Therapeutics, Inc., priority 2023, dated 2025)
